Reference: patent publication US20030220524A1, “Sulfur containing compounds” (priority 2000, published 2003)

Experiments:
[1] = test system: Aspergillus niger and Aspergillus flavus; assay: Antifungal activity; format: cell-based; conditions: in words; 10 μg/disk
[2] = test system: Aspergillus flavus; assay: Antifungal paper disk test, diameter of clear zone; format: cell-based; conditions: Aspergillus flavus, acetone
Protocol: (§1) Sulfur compounds were tested for antifungal activity against pure cultures of Aspergillus niger and Aspergillus flavus supplied by Ward's Natural Science Ltd (St. Catharines, Ontario, Canada). They were maintained on Sabouraud Dextrose Agar.
(§2) For the test, 6 agar plugs (5 mm diameter) were cut from a 5-8 day old colony and homogenized in distilled, sterilized water (2 ml). A portion of this suspension (0.5 ml) was transferred aseptically to a Petri plate with Sabouraud Dextrose Agar (15 ml) and spread evenly over the entire surface. […] Each test compound was applied to the disks as a solution (50 mg compound/10 ml acetone). Control disks were treated with neat acetone (20 μl). Test plates with fungal homogenates and disks were incubated at 18-20° C. for 2 days. For each test four replicate plates were used. The diameter of the clear zone surrounding the disk was taken as the indicator of antifungal activity.

[3] = test system: Aspergillus niger; assay: Antifungal paper disk test, diameter of clear zone; format: cell-based; conditions: Aspergillus niger, acetone
Protocol: as §1, §2

[4] = test system: Aspergillus niger; assay: Antifungal paper disk test, diameter of clear zone; format: cell-based; conditions: 0.25 μg/disk; Appl'n Solvent DMSO
[5] = test system: Aspergillus flavus; assay: Antifungal paper disk test, diameter of clear zone; format: cell-based; conditions: 0.25 μg/disk; Appl'n Solvent DMSO
[6] = test system: Aspergillus niger and Aspergillus flavus; assay: Antifungal activity; format: cell-based; conditions: in words; dose not given
Protocol: as §1
For the test, 6 agar plugs (5 mm diameter) were cut from a 5-8 day old colony and homogenized in distilled, sterilized water (2 ml). A portion of this suspension (0.5 ml) was transferred aseptically to a Petri plate with Sabouraud Dextrose Agar (15 ml) and spread evenly over the entire surface. Each plate was supplied with four evenly spaced paper disks (7 mm, Whatman Number 1 filter paper) containing the test compound (0, 25, 50 and 100 μg respectively). Each test compound was applied to the disks as a solution (50 mg compound/10 ml acetone). Control disks were treated with neat acetone (20 μl). Test plates with fungal homogenates and disks were incubated at 18-20° C. for 2 days. For each test four replicate plates were used. The diameter of the clear zone surrounding the disk was taken as the indicator of antifungal activity.

CSSc1ccccc1[N+](=O)[O-] [o-O2N(C6H4)SSCH3, methyl o-nitrophenyl disulphide]
Antifungal activity / fungitoxicity [1]: pronounced toxicity
zone of inhibition at 10 µg/disc ([2]; 10 μg/disk): 1.9 mm
zone of inhibition at 10 µg/disc ([3]; 10 μg/disk): 2.8 mm

CSSCCCS(C)(=O)=O [CH3SO2CH2CH2CH2SSCH3, 2,3,7-trithiaoctane 7,7-dioxide]
melting point: 34.8 to 35.3 °C
zone of inhibition at 100 µg/disc ([2]; 100 μg/disk, read-out: Diameter (mm) of clear Zone A. flavus): 0 mm
zone of inhibition at 100 µg/disc ([3]; 100 μg/disk, read-out: Diameter (mm) of clear Zone A. niger): 0 mm

C[C@@H]1[C@H](O)[C@@H](C)/C=C/C=C/C=C/C=C/C=C/C=C/C=C/[C@H](O[C@@H]2O[C@H](C)[C@@H](O)[C@H](N)[C@@H]2O)C[C@@H]2O[C@](O)(C[C@@H](O)C[C@@H](O)[C@H](O)CC[C@@H](O)C[C@@H](O)CC(=O)O[C@H]1C)C[C@H](O)[C@H]2C(=O)O [Amphotericin B, reference compound]
Diameter (mm) of clear Zone A. niger [4]: 4.2 mm
Diameter (mm) of clear Zone A. flavus [5]: 4.1 mm
Antifungal activity [6]: most potent of the 3 commercial antifungals tested
